Measured values: patent US9044454B2, “Regulation of microvasculature occlusion” (NORTHWESTERN UNIVERSITY, priority 2010, dated 2015)

Tests used:
[1] = test system: U87 cancer cells (glioma model) tumor in mice; assay: Inhibition of recanalization in U87 tumors embolized with microspheres; type: in vivo
Method: Mice cerebral vasculatures were embolized by intravascular infusion with either (15 micron microspheres+2 mg/ml ML-7 solution) or (15 micron microspheres+vehicle) followed by daily intra-peritoneal injection of ML-7. 14 days later brain tissues were collected and vessels were labeled with fluorescein lectin. The proportion of recanalized occlusions was assessed from 50 randomly selected microsphere in each group.
U87 cancer cells, which model glioma, were implanted in mice to create a tumor. Tumors were embolized by intravascular infusion with either (15 micron microspheres+2 mg/ml ML-7 solution) or (15 micron microspheres+vehicle). 7 days later brain tissues were collected and vessels were labeled with anti CD 31 antibodies. Cell death marker caspase 3 was labeled with anti caspase 3 antibody. Without ML-7 to inhibit extravasation of emboli, individual emboli cause a moderate amount of caspase upregulation and tumor blood vessels are recanalized re-establishing blood flow to the tumor. […] The proportion of recanalized occlusions was assessed for each group.

[2] = test system: mice embolized with fibrin clots or microspheres (cerebral microvasculature); assay: Measurement of embolus extravasation in MMP 2/9 inhibitor injected embolized mice; type: in vivo, mouse
Text: To induce cerebral embolization fluorescently conjugated fibrin clots, cholesterol emboli (8-20 μm in diameter) or polystyrene microspheres (10 or 15 μm in diameter) were infused through the mouse internal carotid artery. Emboli were imaged in fixed tissues by confocal microscopy after vessel labeling by I.V. injection of FITC-lycopersicom esculentum, thioflavin-S or immunolabeled with anti-PECAM-1, collagen IV or ZO-1 antibodies. Emboli were also imaged overtime in vivo by transcranial two-photon microscopy (TPM) in mice expressing GFP in endothelial cells (Tie2-GFP) or wild type mice injected with thioflavin-S I.V. Blood flow velocity was recorded by line scan TPM imaging to verify microvascular occlusion and reestablishment of flow. […] Quantification of extravasation efficiency was performed from confocal images in fixed brain slices and in a subset of experiments from in vivo TPM time-lapse images. Matrix metalloprotease 2/9 (MMP2/9) activity was measured in areas adjacent to emboli using fluorescent in situ zymography methods. […] Perivascular hypoxia was detected by administration and immunohistochemical detection of hypoxyprobe. Dendritic spine density was quantified in confocal image stacks of fixed brain slices from mice expressing YFP in a subset of pyramidal neurons. […]

[3] = 15 micron microspheres + 2 mg/ml ML-7 solution vs vehicle, FIG. 3

Row | SMILES | cell death marker Caspase-3 within the cancer ([1]; 15 micron microspheres + 2 mg/ml ML-7 solution vs microspheres + vehicle, intravascular infusion, 7 days) | extravasated emboli [1, 3] | proportion of recanalized occlusions (occluded vessels re-canalized) [1, 3] | extravasation of clot fragments ([2]; fibrin clot-embolized mice, SB-3CT 20 mg/kg/day i.p. vs saline, 4 days) | microsphere extravasation ([2]; microsphere-embolized mice, SB-3CT i.p. daily 2, 10, 20 mg/kg/day or acutely 40 mg/kg vs saline, 14 days post-embolization)
1 | O=S(=O)(c1cccc2c(I)cccc12)N1CCCNCC1 [ML-7] | broad upregulation | less extravasated emboli | fewer of occluded vessels had been re-canalized |  | 
2 | O=S(=O)(CC1CS1)c1ccc(Oc2ccccc2)cc1 (centres unmarked) [SB-3CT] |  |  |  | marked reduction | substantial reduction
